Converted amounts (≈) assume the structure as drawn. The source made the active and inactive calls. No cut-off for these calls is given here.
Legend:
[1] = Selectivity index, ratio of CC50 for human A549 cells to MIC for fluconazole/ITC-resistant Candida albicans ATCC MYA-1003; type: toxicity; conditions: read-out: Selectivity Index
[2] = Selectivity index, ratio of CC50 for human A549 cells to MIC for Aspergillus terreus ATCC MYA-3633; type: toxicity; conditions: read-out: Selectivity Index
[3] = Selectivity index, ratio of compound concentration showing <20 to <30% hemolysis in mouse RBC to MIC for Aspergillus nidulans ATCC 38163; type: toxicity; conditions: mouse red blood cells (RBC), read-out: Selectivity Index
[4] = target: Voltage-gated inwardly rectifying potassium channel KCNH2 (Homo sapiens, UniProt Q12809); assay: Inhibition of [3H]-dofetilide binding to human ERG expressed in HEK293 cell membranes measured after 1 hr by liquid scintillation counting method
Voltage-gated inwardly rectifying potassium channel KCNH2, sequence (Q12809 whole entry): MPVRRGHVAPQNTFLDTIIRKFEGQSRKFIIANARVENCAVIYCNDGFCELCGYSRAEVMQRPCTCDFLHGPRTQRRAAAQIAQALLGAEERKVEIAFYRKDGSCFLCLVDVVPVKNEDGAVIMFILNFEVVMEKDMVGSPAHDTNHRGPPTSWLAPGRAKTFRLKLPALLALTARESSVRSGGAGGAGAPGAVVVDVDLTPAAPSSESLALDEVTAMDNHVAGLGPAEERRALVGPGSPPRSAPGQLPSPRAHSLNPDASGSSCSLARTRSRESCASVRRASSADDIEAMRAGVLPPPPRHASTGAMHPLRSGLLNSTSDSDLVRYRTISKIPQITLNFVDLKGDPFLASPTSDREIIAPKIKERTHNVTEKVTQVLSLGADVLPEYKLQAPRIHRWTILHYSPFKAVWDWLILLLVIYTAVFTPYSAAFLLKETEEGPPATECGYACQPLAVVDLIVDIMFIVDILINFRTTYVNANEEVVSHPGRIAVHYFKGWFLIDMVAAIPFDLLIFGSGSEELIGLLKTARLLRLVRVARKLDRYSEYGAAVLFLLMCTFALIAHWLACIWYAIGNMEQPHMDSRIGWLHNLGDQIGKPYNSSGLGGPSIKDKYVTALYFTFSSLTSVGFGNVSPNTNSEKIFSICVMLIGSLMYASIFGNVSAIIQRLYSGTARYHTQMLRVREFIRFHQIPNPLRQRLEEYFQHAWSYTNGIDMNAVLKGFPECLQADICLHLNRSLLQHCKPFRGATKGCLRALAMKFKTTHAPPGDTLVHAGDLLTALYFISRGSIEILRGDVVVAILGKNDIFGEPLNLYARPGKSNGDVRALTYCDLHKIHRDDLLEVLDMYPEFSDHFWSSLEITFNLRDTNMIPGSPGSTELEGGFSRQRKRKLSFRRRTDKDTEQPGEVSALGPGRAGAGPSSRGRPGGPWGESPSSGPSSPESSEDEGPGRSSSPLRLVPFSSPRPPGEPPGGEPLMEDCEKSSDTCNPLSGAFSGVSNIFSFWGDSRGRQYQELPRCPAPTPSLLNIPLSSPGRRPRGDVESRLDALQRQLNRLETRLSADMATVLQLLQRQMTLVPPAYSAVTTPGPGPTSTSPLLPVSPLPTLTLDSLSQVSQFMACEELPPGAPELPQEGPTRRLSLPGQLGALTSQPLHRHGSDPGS

Candida albicans [5] = assay: Antifungal activity against fluconazole/ITC-resistant Candida albicans ATCC MYA-1003 measured after 48 hrs by CLSI M27-A3 protocol based method; type: functional; conditions: ATCC MYA-1003, 48 h
[6] = Hemolytic activity in mouse RBC at 3.9 ug/ml after 1 hr relative to control; type: ADME, cell-based, Erythrocyte; conditions: red blood cells (erythrocytes), read-out: Activity
Candida albicans [7] = assay: Antifungal activity against fluconazole/ITC-resistant Candida albicans ATCC 10231 measured after 48 hrs by CLSI M27-A3 protocol based method; type: functional; conditions: ATCC 10231, 48 h
[8] = Selectivity index, ratio of compound concentration showing <20 to <30% hemolysis in mouse RBC to MIC for fluconazole/ITC-resistant Candida albicans ATCC 90819; type: toxicity; conditions: red blood cells (erythrocytes), read-out: Selectivity Index
[9] = Hemolytic activity in mouse RBC at […] after 1 hr relative to control; type: ADME, cell-based, Erythrocyte; conditions: red blood cells (erythrocytes), read-out: Activity; note: tested at 0.48 µg/mL
[10] = Selectivity index, ratio of CC50 for human A549 cells to MIC for Aspergillus flavus ATCC MYA-3631; type: toxicity; conditions: read-out: Selectivity Index
[11] = Selectivity index, ratio of compound concentration showing <20 to <30% hemolysis in mouse RBC to MIC for Aspergillus flavus ATCC MYA-3631; type: toxicity; conditions: mouse red blood cells (RBC), read-out: Selectivity Index
[12] = Selectivity index, ratio of CC50 for human A549 cells to MIC for fluconazole/ITC-resistant Candida albicans ATCC 90819; type: toxicity; conditions: read-out: Selectivity Index
[13] = Selectivity index, ratio of compound concentration showing <20 to <30% hemolysis in mouse RBC to MIC for fluconazole/ITC-resistant Candida albicans ATCC 10231; type: toxicity; conditions: red blood cells (erythrocytes), read-out: Selectivity Index
[14] = Selectivity index, ratio of CC50 for human A549 cells to MIC for fluconazole/ITC-resistant Candida albicans ATCC 64124; type: toxicity; conditions: read-out: Selectivity Index
Aspergillus flavus = assay: Antifungal activity against Aspergillus flavus ATCC MYA-3631 measured after 48 hrs by CLSI M38-A2 protocol based method; type: functional; conditions: ATCC MYA-3631, 48 h
Candida albicans [15] = assay: Antifungal activity against fluconazole/ITC-resistant Candida albicans ATCC 64124 measured after 48 hrs by CLSI M27-A3 protocol based method; type: functional; conditions: ATCC 64124, 48 h
[16] = Hemolytic activity in mouse RBC at 62.5 ug/ml after 1 hr relative to control; type: ADME, cell-based, Erythrocyte; conditions: red blood cells (erythrocytes), read-out: Activity
[17] = Selectivity index, ratio of compound concentration showing <20 to <30% hemolysis in mouse RBC to MIC for fluconazole/ITC-resistant Candida albicans ATCC MYA-1237; type: toxicity; conditions: mouse red blood cells (RBC), read-out: Selectivity Index
[18] = Selectivity index, ratio of compound concentration showing <20 to <30% hemolysis in mouse RBC to MIC for Candida krusei ATCC 6258; type: toxicity; conditions: mouse red blood cells (RBC), read-out: Selectivity Index
Listeria monocytogenes = assay: Antibacterial activity against Listeria monocytogenes; type: functional, organism-based
[19] = Selectivity index, ratio of compound concentration showing <20 to <30% hemolysis in mouse RBC to MIC for fluconazole/ITC-resistant Candida albicans ATCC MYA-1003; type: toxicity; conditions: mouse red blood cells (RBC), read-out: Selectivity Index
[20] = Selectivity index, ratio of CC50 for human A549 cells to MIC for Candida krusei ATCC 6258; type: toxicity; conditions: read-out: Selectivity Index
[21] = Selectivity index, ratio of compound concentration showing <20 to <30% hemolysis in mouse RBC to MIC for Candida glabrata ATCC 2001; type: toxicity; conditions: mouse red blood cells (RBC), read-out: Selectivity Index
Candida albicans [22] = assay: Antifungal activity against fluconazole/ITC-susceptible Candida albicans ATCC MYA-2876 measured after 48 hrs by CLSI M27-A3 protocol based method; type: functional; conditions: ATCC MYA-2876, 48 h
[23] = Selectivity index, ratio of compound concentration showing <20 to <30% hemolysis in mouse RBC to MIC for fluconazole/ITC-susceptible Candida albicans ATCC MYA-2876; type: toxicity; conditions: red blood cells (erythrocytes), read-out: Selectivity Index
[24] = Hemolytic activity in mouse RBC at 7.8 ug/ml after 1 hr relative to control; type: ADME, cell-based, Erythrocyte; conditions: red blood cells (erythrocytes), read-out: Activity
[25] = Selectivity index, ratio of compound concentration showing <20 to <30% hemolysis in mouse RBC to MIC for Aspergillus terreus ATCC MYA-3633; type: toxicity; conditions: mouse red blood cells (RBC), read-out: Selectivity Index
Nakaseomyces glabratus = assay: Antifungal activity against Candida glabrata ATCC 2001 measured after 48 hrs by CLSI M27-A3 protocol based method; type: functional; conditions: CBS 138, 48 h
Candida albicans [26] = assay: Antifungal activity against fluconazole/ITC-susceptible Candida albicans ATCC MYA-2310 measured after 48 hrs by CLSI M27-A3 protocol based method; type: functional; conditions: ATCC MYA-2310, 48 h
[27] = Selectivity index, ratio of CC50 for human A549 cells to MIC for Aspergillus nidulans ATCC 38163; type: toxicity; conditions: read-out: Selectivity Index
A549 = assay: Cytotoxicity against human A549 cells after 24 hrs by resazurin based assay; type: cell-based; conditions: a549, 24 h
[28] = Selectivity index, ratio of CC50 for human A549 cells to MIC for fluconazole/ITC-resistant Candida albicans ATCC 10231; type: toxicity; conditions: read-out: Selectivity Index
[29] = Hemolytic activity in mouse RBC at […] ug/ml after 1 hr relative to control; type: ADME, cell-based, Erythrocyte; conditions: red blood cells (erythrocytes), read-out: Activity
[30] = Selectivity index, ratio of CC50 for human A549 cells to MIC for fluconazole/ITC-susceptible Candida albicans ATCC MYA-2876; type: toxicity; conditions: read-out: Selectivity Index
[31] = Selectivity index, ratio of CC50 for human A549 cells to MIC for Candida glabrata ATCC 2001; type: toxicity; conditions: read-out: Selectivity Index
[32] = Selectivity index, ratio of compound concentration showing <20 to <30% hemolysis in mouse RBC to MIC for Candida parapsilosis ATCC 22019; type: toxicity; conditions: mouse red blood cells (RBC), read-out: Selectivity Index
BEAS-2B = assay: Cytotoxicity against human BEAS2B cells after 24 hrs by resazurin based assay; type: cell-based
[33] = Hemolytic activity in mouse RBC at 31.3 ug/ml after 1 hr relative to control; type: ADME, cell-based, Erythrocyte; conditions: red blood cells (erythrocytes), read-out: Activity
[34] = Selectivity index, ratio of CC50 for human A549 cells to MIC for fluconazole/ITC-susceptible Candida albicans ATCC MYA-2310; type: toxicity; conditions: read-out: Selectivity Index
[35] = Selectivity index, ratio of CC50 for human A549 cells to MIC for Candida parapsilosis ATCC 22019; type: toxicity; conditions: read-out: Selectivity Index
[36] = Selectivity index, ratio of CC50 for human A549 cells to MIC for fluconazole/ITC-resistant Candida albicans ATCC MYA-1237; type: toxicity; conditions: read-out: Selectivity Index
Aspergillus nidulans = assay: Antifungal activity against Aspergillus nidulans ATCC 38163 measured after 48 hrs by CLSI M38-A2 protocol based method; type: functional; conditions: ATCC 38163, 48 h
Candida parapsilosis = assay: Antifungal activity against Candida parapsilosis ATCC 22019 measured after 48 hrs by CLSI M27-A3 protocol based method; type: functional; conditions: Lodderomyces parapsilosis, ATCC 22019, 48 h
Pichia kudriavzevii = assay: Antifungal activity against Candida krusei ATCC 6258 measured after 48 hrs by CLSI M27-A3 protocol based method; type: functional; conditions: ATCC 6258, 48 h
[37] = Hemolytic activity in mouse RBC at 1.95 ug/ml after 1 hr relative to control; type: ADME, cell-based, Erythrocyte; conditions: red blood cells (erythrocytes), read-out: Activity
Aspergillus terreus = assay: Antifungal activity against Aspergillus terreus ATCC MYA-3633 measured after 48 hrs by CLSI M38-A2 protocol based method; type: functional; conditions: ATCC MYA-3633, 48 h
Candida albicans [38] = assay: Antifungal activity against fluconazole/ITC-resistant Candida albicans ATCC MYA-1237 measured after 48 hrs by CLSI M27-A3 protocol based method; type: functional; conditions: ATCC MYA-1237, 48 h
Enterococcus = assay: Antibacterial activity against vancomycin-resistant Enterococcus; type: functional, organism-based
[39] = Selectivity index, ratio of compound concentration showing <20 to <30% hemolysis in mouse RBC to MIC for fluconazole/ITC-susceptible Candida albicans ATCC MYA-2310; type: toxicity; conditions: mouse red blood cells (RBC), read-out: Selectivity Index
[40] = Selectivity index, ratio of compound concentration showing <20 to <30% hemolysis in mouse RBC to MIC for fluconazole/ITC-resistant Candida albicans ATCC 64124; type: toxicity; conditions: red blood cells (erythrocytes), read-out: Selectivity Index
Candida albicans [41] = assay: Antifungal activity against fluconazole/ITC-resistant Candida albicans ATCC 90819 measured after 48 hrs by CLSI M27-A3 protocol based method; type: functional; conditions: ATCC 90819, 48 h
Staphylococcus aureus = assay: Antibacterial activity against methicillin-resistant Staphylococcus aureus; type: functional, organism-based

## COc1ccc(N/N=C/c2ccc(-c3ccc(/C=N/Nc4ccc(OC)cc4)cc3)cc2)cc1
[1]
  selectivity ratio: 4
[2]
  selectivity ratio: 1
[3]
  selectivity ratio: 1 to 32
[4]
  IC50: > 30 µM
Candida albicans [5]
  MIC: 7.8 µg/mL (≈ 17.3 µM)
[6]
  hemolysis at 1 h, 3.9 ug/ml: 2.8%
Candida albicans [7]
  MIC: 7.8 µg/mL (≈ 17.3 µM)
[8]
  selectivity ratio: 1 to 32
[9]
  hemolysis at 1 h, […]: 1.2%
[10]
  selectivity ratio: 1
[11]
  selectivity ratio: 1 to 32
[12]
  selectivity ratio: 4
[13]
  selectivity ratio: 1 to 32
[14]
  selectivity ratio: 8
Aspergillus flavus
  MIC: > 31.3 µg/mL
Candida albicans [15]
  MIC: 3.9 µg/mL (≈ 8.66 µM)
[16]
  hemolysis at 1 h, 62.5 ug/ml: 22.7%
[17]
  selectivity ratio: 1 to 32
[18]
  selectivity ratio: 1 to 32
Listeria monocytogenes
  Activity: inactive
[19]
  selectivity ratio: 1 to 32
[20]
  selectivity ratio: 4
[21]
  selectivity ratio: 1 to 32
Candida albicans [22]
  MIC: 7.8 µg/mL (≈ 17.3 µM)
[23]
  selectivity ratio: 1 to 32
[24]
  hemolysis at 1 h, 7.8 ug/ml: 4.2%
[25]
  selectivity ratio: 1 to 32
Nakaseomyces glabratus
  MIC: 7.8 µg/mL (≈ 17.3 µM)
Candida albicans [26]
  MIC: 3.9 µg/mL (≈ 8.66 µM)
[27]
  selectivity ratio: 4
A549
  CC50: > 31 µg/mL
[28]
  selectivity ratio: 4
[29]; at 15.6 µg/mL
  hemolysis at 1 h, 15.6 ug/ml: 6.7%
[29]
  hemolysis at 1 h, 0.975 ug/ml: 1.6%
[30]
  selectivity ratio: 4
[31]
  selectivity ratio: 4
[32]
  selectivity ratio: 1 to 32
BEAS-2B
  CC50: 16.4 µg/mL (≈ 36.4 µM)
[33]
  hemolysis at 1 h, 31.3 ug/ml: 12.6%
[34]
  selectivity ratio: 8
[35]
  selectivity ratio: 2
[36]
  selectivity ratio: 2
Aspergillus nidulans
  MIC: 7.8 µg/mL (≈ 17.3 µM)
Candida parapsilosis
  MIC: 15.6 µg/mL (≈ 34.6 µM)
Pichia kudriavzevii
  MIC: 7.8 µg/mL (≈ 17.3 µM)
[37]
  hemolysis at 1 h, 1.95 ug/ml: 1.9%
Aspergillus terreus
  MIC: > 31.3 µg/mL
Candida albicans [38]
  MIC: 15.6 µg/mL (≈ 34.6 µM)
Enterococcus
  Activity: inactive
[39]
  selectivity ratio: 1 to 32
[40]
  selectivity ratio: 1 to 32
Candida albicans [41]
  MIC: 7.8 µg/mL (≈ 17.3 µM)
Staphylococcus aureus
  Activity: inactive

Reference: ChEMBL document CHEMBL4411307, “N,N'-diaryl-bishydrazones in a biphenyl platform: Broad spectrum antifungal agents” (Eur J Med Chem, 2019)
